pIC50: −log10 of the molar value.
Biological target: T1, Serine-threonine protein phosphatase 2A regulatory subunit (Gallus gallus, UniProt Q8AWE3)
T1 sequence (Q8AWE3 whole entry): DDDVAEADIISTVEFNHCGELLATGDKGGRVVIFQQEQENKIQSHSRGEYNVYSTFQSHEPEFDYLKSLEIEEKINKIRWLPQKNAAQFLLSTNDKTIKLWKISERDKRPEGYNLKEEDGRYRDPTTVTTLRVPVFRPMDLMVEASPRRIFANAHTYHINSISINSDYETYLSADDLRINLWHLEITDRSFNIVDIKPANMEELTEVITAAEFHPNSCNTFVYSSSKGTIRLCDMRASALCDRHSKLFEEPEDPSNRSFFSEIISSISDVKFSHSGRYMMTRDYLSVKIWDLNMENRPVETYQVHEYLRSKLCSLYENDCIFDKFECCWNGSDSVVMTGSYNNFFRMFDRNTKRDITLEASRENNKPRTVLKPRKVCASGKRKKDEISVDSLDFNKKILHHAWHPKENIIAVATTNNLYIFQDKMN
Assay: Inhibitory concentration against protein phosphatase 2A (PP2A) was determined

Compound	pIC50
O=C(O)[C@H](Cc1c[nH]c2ccccc12)N1C(=O)[C@@H]2[C@H](C1=O)[C@H]1CC[C@@H]2O1	3.98
C[C@@H](C(=O)O)N1C(=O)[C@@H]2[C@H](C1=O)[C@H]1CC[C@@H]2O1	< 3.00
O=C(O)CC[C@H](C(=O)O)N1C(=O)[C@@H]2[C@H](C1=O)[C@H]1CC[C@@H]2O1	4.49
O=C(O)[C@H](Cc1c[nH]cn1)N1C(=O)[C@@H]2[C@H](C1=O)[C@H]1CC[C@@H]2O1	5.87
CC(C)C[C@H](C(=O)O)N1C(=O)[C@@H]2[C@H](C1=O)[C@H]1CC[C@@H]2O1	< 3.00
O=C(O)[C@@H](Cc1c[nH]c2ccccc12)N1C(=O)[C@@H]2[C@H](C1=O)[C@H]1CC[C@@H]2O1	3.80
CC(C)C[C@@H](C(=O)O)N1C(=O)[C@@H]2[C@H](C1=O)[C@H]1CC[C@@H]2O1	< 3.00
O=C(O)[C@@H](Cc1cnc[nH]1)N1C(=O)[C@@H]2[C@H](C1=O)[C@H]1CC[C@@H]2O1	6.09
O=C(O)[C@@H](Cc1ccccc1)N1C(=O)[C@@H]2[C@H](C1=O)[C@H]1CC[C@@H]2O1	< 3.00
CSC[C@@H](C(=O)O)N1C(=O)[C@@H]2[C@H](C1=O)[C@H]1CC[C@@H]2O1	< 3.00
C[C@H](C(=O)O)N1C(=O)[C@@H]2[C@H](C1=O)[C@H]1CC[C@@H]2O1	3.82
O=C(O)[C@H](Cc1ccccc1)N1C(=O)[C@@H]2[C@H](C1=O)[C@H]1CC[C@@H]2O1	< 3.00

Biological target: T2, Serine-threonine protein phosphatase 2A regulatory subunit (Gallus gallus) (UniProt Q8AWE3)
T2 sequence (whole entry): T1 sequence (Q8AWE3 whole entry)
Assay: Selectivity expressed as the ratio of Protein phosphatase 2A/Protein phosphatase 1 was determined

Compound	Selectivity
CCOC(=O)C1C(C(=O)O)[C@@H]2CC[C@H]1O2 (stereo not given in full)	6.5

System: not listed separately
Assay: Selectivity expressed as the ratio of PP2A/PP1 was determined

Compound	Selectivity
O=C(O)CC[C@H](C(=O)O)N1C(=O)[C@@H]2[C@H](C1=O)[C@H]1CC[C@@H]2O1	3

Biological target: Serine/threonine-protein phosphatase PP1 catalytic subunit
Assay: Inhibitory concentration against protein phosphatase 1 was determined

Compound	pIC50
CCOC(=O)C1C(C(=O)O)[C@@H]2CC[C@H]1O2 (stereo not given in full)	5.53

Source: ChEMBL document CHEMBL1133841 (Bioorg Med Chem Lett, 2001)
